{"source": "patent US20220370381A1", "about": "(priority 2016, published 2022)", "key": {"[1]": {"system": "T1, β-Adrenergic (Non-selective)", "T1 construct": "β-1 adrenergic; other: test article 1×10^−6 and 1×10^−5 mol/L; rat brain", "experiment": "Competitive radioligand binding assay, β-adrenergic (non-selective)", "set-up": "species or system Rat", "conditions": "test article 1×10^−6 and 1×10^−5 mol/L; rat brain"}, "[2]": {"biological_target": "T2, human β-2 adrenergic receptor (Homo sapiens, UniProt P07550)", "T2 sequence (P07550 whole entry)": "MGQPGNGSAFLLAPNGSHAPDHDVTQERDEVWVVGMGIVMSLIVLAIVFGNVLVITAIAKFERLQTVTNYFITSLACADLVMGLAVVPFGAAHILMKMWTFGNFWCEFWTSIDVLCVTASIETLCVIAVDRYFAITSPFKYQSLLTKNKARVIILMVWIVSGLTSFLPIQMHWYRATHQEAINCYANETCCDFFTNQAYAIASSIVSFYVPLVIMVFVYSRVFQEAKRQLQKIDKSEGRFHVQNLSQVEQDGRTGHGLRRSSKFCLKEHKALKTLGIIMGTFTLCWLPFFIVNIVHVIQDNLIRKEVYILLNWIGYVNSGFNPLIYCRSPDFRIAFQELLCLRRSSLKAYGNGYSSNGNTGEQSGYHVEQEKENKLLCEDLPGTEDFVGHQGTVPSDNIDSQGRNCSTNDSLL", "experiment": "Competitive radioligand binding assay, β2-adrenergic", "conditions": "test article 1×10^−6 and 1×10^−5 mol/L; human recombinant"}, "[3]": {"system": "T3, Na channel", "T3 construct": "other: test article 1×10^−6 and 1×10^−5 mol/L; rat brain", "experiment": "Competitive radioligand binding assay, Na channel", "set-up": "species or system Rat", "conditions": "test article 1×10^−6 and 1×10^−5 mol/L; rat brain"}, "[4]": {"biological_target": "T4, serotonin 5-HT1A (Rattus norvegicus, UniProt P19327)", "T4 construct": "serotonin 5-HT1A (rat cerebral cortex); from tissue; host or cells: rat cerebral cortex", "T4 sequence (P19327 1-422)": "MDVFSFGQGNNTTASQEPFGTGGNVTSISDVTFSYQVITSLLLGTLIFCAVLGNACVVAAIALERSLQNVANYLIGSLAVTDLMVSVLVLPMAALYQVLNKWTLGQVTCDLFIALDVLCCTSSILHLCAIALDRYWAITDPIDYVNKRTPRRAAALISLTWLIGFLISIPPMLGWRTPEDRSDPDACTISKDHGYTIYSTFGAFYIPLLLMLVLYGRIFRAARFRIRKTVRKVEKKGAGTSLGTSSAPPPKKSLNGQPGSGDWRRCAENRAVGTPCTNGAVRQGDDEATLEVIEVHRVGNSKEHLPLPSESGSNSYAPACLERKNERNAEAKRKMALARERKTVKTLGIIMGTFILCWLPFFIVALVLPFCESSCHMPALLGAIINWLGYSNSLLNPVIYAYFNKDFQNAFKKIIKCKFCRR", "experiment": "Competitive radioligand binding assay, serotonin 5-HT1A"}, "[5]": {"system": "Sigma non-selective", "experiment": "Competitive radioligand binding assay, sigma non-selective", "set-up": "species or system Guinea pig", "conditions": "test article 1×10^−6 and 1×10^−5 mol/L; guinea pig brain"}, "[6]": {"system": "homozygous scn1Lab−/− mutant zebrafish", "experiment": "Forebrain local field potential (LFP) recordings in homozygous scn1Lab−/− mutant zebrafish larvae", "type": "in vivo", "conditions": "25, 50 or 100 μM for 24 h; p<0.05 vs. VHC", "method": "ZF larvae were treated on 6 dpf with vehicle (VHC, 0.1% dimethyl sulfoxide, DMSO, or FA (25, 50 or 100 μM) for 24 h. Thereafter, the locomotor activity (behavior) was monitored by an automated tracking device. Subsequently, forebrain local field potentials and forebrain activity (LFPs, brain activity) were measured to confirm anticonvulsant effects of FA treatment, if indicated by the behavioral assays."}, "[7]": {"system": "CRL NMRI mice", "experiment": "Mouse 6-Hz model of refractory seizures", "type": "in vivo", "conditions": "5.0 or 20.0 mg/kg i.p.", "method": "The 6 Hz mouse model is a model system used to assess the efficacy of putative anti-seizure medications for refractory epilepsies generally, without regard to type.\nThe efficacy of FA in the mouse 6-Hz model was assessed by behavioral characterization after intraperitoneal injection of CRL NMRI mice (30-35 g) with VHC (50/50 DMSO/PEG200) or FA (5.0 or 20.0 mg/kg). Animals were placed in one of three treatment groups: vehicle (n=10), FA 5 mg/kg (n=6) and FA 20 mg/kg (n=6). Seizures were transcorneal-induced 1 h after injection (6-Hz, 0.2 ms pulse width, 44 mA)."}, "[8]": {"system": "DBA/1 mice", "experiment": "Seizure-induced respiratory arrest (S-IRA) in DBA/1 mice", "type": "in vivo, mouse"}, "[9]": {"system": "DBA/1 mice", "experiment": "Audiogenic seizures (AGSz) in DBA/1 mice", "type": "in vivo, mouse"}, "[10]": {"biological_target": "T2, human β-2 adrenergic receptor", "experiment": "β-2 adrenergic receptor antagonist assay, agonist-induced cAMP production (HTRF)", "type": "cell-based", "set-up": "expressed in transfected cells; host or cells: HEK-293", "conditions": "inhibition of isoproterenol-induced cAMP production", "method": "Transfected HEK-293 cells expressing human β-1 adrenergic receptor, human β-2 adrenergic receptor, and human β3 adrenergic receptor, respectively, were prepared using cloned human cDNA. See H FRIELLE, T., COLLINS, S., DANIEL, K. W., CARON, M. G., LEFKOWITZ, R. J., KOBILKA, B. K. (1987), Cloning of the cDNA for the human beta1-adrenergic receptor, Proc. Natl. Acad. Sci. U.S.A., 84,7920, and BAKER, J. G. (2005) The selectivity of Beta-adrenoreceptor antagonists at the human Beta1, Beta2 and Beta3 adrenoreceptor, Brit.\nTransfected cells were suspended in HBSS buffer (Invitrogen) complemented with 20 mM HEPES (pH 7.4) and 500 μM IBMX. […] The cells were then distributed in 96 well microplates (see FIG. 15 for plating densities).\nAfter plating, the cells were induced by adding reference agonist. See FIG. 15 for reference agonists and concentrations used for each assay. […] The cells were then incubated 30 minutes at room temperature.\nSubsequently, the cells were lysed and a fluorescence acceptor (D2-labeled cAMP) and a fluorescence donor (anti-cAMP antibody labeled with europium cryptate) were added to the wells.\nStandard reference antagonists were tested in each experiment at several concentrations to generate a concentration-response curve from which its IC50 value is calculated.\nEC50 values (concentration producing a half-maximal response) and IC50 values (concentration causing a half-maximal inhibition of the control agonist response) were determined by non-linear regression analysis of the concentration-response curves generated with mean replicate values using Hill equation curve fitting: […]\nFor the antagonists, the apparent dissociation constants (KB) were calculated using the modified Cheng Prusoff equation:\nKB=IC50/[1+(A/EC50A)], where"}, "[11]": {"biological_target": "hNav1.5 (Homo sapiens, UniProt Q14524)", "sequence (Q14524 whole entry)": "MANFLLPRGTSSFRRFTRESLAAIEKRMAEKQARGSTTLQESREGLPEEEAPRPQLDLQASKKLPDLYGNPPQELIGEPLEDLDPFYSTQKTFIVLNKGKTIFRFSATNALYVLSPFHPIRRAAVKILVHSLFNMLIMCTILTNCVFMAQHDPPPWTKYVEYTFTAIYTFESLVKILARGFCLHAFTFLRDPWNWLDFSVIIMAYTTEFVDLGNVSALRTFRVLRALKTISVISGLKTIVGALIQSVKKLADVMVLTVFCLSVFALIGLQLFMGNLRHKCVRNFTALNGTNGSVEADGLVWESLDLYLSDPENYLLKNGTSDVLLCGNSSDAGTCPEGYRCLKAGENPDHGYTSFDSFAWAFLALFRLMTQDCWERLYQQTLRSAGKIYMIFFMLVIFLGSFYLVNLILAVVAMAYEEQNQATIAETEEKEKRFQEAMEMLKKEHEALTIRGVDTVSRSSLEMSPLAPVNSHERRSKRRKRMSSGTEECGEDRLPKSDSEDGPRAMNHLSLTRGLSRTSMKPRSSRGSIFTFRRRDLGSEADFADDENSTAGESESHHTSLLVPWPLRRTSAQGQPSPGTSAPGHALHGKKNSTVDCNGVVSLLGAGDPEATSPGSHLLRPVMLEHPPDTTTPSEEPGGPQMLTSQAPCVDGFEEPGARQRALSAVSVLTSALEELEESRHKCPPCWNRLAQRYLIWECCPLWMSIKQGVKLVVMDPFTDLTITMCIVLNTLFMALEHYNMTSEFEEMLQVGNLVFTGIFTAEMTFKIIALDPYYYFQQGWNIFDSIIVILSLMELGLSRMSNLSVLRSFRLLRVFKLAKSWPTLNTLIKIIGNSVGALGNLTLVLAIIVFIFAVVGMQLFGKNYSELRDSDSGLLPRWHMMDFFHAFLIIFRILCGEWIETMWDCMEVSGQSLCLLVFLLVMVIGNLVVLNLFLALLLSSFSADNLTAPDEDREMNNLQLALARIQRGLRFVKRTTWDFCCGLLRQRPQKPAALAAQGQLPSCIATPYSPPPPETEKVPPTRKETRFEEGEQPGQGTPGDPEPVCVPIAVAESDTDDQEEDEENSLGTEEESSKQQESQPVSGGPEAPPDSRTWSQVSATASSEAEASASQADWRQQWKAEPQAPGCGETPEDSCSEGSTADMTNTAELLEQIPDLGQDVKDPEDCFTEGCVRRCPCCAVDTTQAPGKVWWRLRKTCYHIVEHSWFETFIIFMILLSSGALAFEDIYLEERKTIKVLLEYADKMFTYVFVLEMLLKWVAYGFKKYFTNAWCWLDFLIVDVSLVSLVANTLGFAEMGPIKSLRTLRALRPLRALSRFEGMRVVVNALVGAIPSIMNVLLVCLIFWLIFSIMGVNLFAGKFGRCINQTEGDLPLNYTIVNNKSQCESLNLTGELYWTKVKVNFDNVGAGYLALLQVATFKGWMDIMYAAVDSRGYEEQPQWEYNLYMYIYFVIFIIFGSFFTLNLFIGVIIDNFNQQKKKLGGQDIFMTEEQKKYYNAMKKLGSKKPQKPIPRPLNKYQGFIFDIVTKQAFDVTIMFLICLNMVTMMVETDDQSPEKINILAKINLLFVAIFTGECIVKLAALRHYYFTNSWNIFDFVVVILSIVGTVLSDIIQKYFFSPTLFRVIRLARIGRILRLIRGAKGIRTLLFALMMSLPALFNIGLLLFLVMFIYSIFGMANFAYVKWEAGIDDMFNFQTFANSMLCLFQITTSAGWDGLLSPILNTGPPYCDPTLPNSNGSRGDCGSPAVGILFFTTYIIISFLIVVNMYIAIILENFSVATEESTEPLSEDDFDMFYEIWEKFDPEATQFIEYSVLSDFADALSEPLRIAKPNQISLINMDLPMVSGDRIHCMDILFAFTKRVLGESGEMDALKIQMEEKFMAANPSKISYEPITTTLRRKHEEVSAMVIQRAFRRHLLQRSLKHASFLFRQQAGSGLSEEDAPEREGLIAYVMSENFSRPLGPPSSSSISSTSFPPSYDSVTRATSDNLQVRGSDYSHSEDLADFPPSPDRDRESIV", "experiment": "Ion channel profiling, IonFlux HT automated patch clamp, hNav1.5"}, "[12]": {"biological_target": "Sigma 1 (Cavia porcellus, UniProt Q60492)", "sequence (Q60492 whole entry)": "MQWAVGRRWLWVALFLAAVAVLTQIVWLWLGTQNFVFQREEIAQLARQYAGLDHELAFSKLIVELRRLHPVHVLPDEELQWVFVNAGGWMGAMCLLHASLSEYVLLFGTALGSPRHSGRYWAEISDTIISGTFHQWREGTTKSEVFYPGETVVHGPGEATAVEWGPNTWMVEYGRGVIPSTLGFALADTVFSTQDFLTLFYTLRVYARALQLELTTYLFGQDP", "experiment": "Sigma-1 receptor tissue bioassay, guinea pig vas deferens, antagonist activity ((+)SKF-10047-induced response)", "set-up": "Segments of guinea pig vas deferens were suspended in 20-ml organ baths; from tissue; host or cells: guinea pig vas deferens"}}, "data": [{"smiles": "CCNC(C)Cc1cccc(C(F)(F)F)c1", "note": "(racemic) [fenfluramine, (RS)—N-ethyl-1-[3-(trifluoromethyl)phenyl]propan-2-amine]", "values": [{"measurement": "inhibition of receptor binding (tracer)", "setting": "[1]", "result": "significantly inhibit"}, {"measurement": "inhibition of receptor binding (tracer)", "setting": "[2]", "result": "significantly inhibit"}, {"measurement": "inhibition of receptor binding (tracer)", "setting": "[3]", "result": "significantly inhibit"}, {"measurement": "IC50", "setting": "[4]", "result": 573, "unit": "nM"}, {"measurement": "Ki", "setting": "[4]", "result": 327, "unit": "nM"}, {"measurement": "inhibition of receptor binding (tracer)", "setting": "[4]; test article 1×10^−6 and 1×10^−5 mol/L, rat cerebral cortex", "result": "significantly inhibit"}, {"measurement": "inhibition of receptor binding (tracer)", "setting": "[5]", "result": "significantly inhibit"}, {"measurement": "epileptiform brain activity (LFP recordings)", "setting": "[6]", "result": "anti-epileptiform activity was consistently confirmed"}, {"measurement": "period of post-seizure aggression", "setting": "[7]", "result": "did not"}, {"measurement": "seizures in the mouse 6-Hz model", "setting": "[7]; 1 h before 6-Hz 44 mA stimulation, p<0.05 vs. VHC", "result": "significantly reduced seizures"}, {"measurement": "effect on seizures and S-IRA", "setting": "[8]; 5 mg/kg", "result": "ineffective"}, {"measurement": "S-IRA", "setting": "[8]; 15 mg/kg, at 16h, p<0.001", "result": "selective S-IRA blocking effect"}, {"measurement": "time at which S-IRA susceptibility returned", "setting": "[8]; 40 mg/kg", "result": 72, "unit": "h"}, {"measurement": "S-IRA incidence and seizure severity", "setting": "[8]; 10-20 mg/kg, at 8h", "result": "reduction in S-IRA incidence and seizure severity"}, {"measurement": "S-IRA susceptibility and seizure severity", "setting": "[8]; 10 and 15 mg/kg, at 12h", "result": "significantly (p<0.01) reduced S-IRA susceptibility and seizure severity"}, {"measurement": "ED50", "setting": "[8]; Mus musculus, ip, 0.5 h, read-out: ED50, blockade of seizure-induced respiratory arrest (S-IRA)", "result": 18.6, "unit": "mg/kg"}, {"measurement": "time by which susceptibility to seizure and S-IRA returned", "setting": "[8]; time course study, 5-20 mg/kg", "result": "≤ 48", "unit": "h"}, {"measurement": "seizure severity", "setting": "[9]; 15 mg/kg, at 16h, p<0.05", "result": "significantly reduced seizure severity"}, {"measurement": "time at which seizure susceptibility returned", "setting": "[9]; 40 mg/kg", "result": 48, "unit": "h"}, {"measurement": "seizures", "setting": "[9]; 40 mg/kg, at 30 min, p<0.001", "result": "completely blocked seizures"}, {"measurement": "ED50", "setting": "[9]; Mus musculus, ip, 0.5 h, i.p., at 30 min, read-out: ED50, blockade of susceptibility to audiogenic seizures (AGSz)", "result": 31, "unit": "mg/kg"}, {"measurement": "ED50, blockade of susceptibility to audiogenic seizures (AGSz)", "setting": "[9]; i.p., at 30 min, listed as FFA", "result": 21.4, "unit": "mg/kg"}, {"measurement": "antagonist activity at the beta-2 adrenergic receptor", "setting": "[10]", "result": "some antagonist activity"}, {"measurement": "IC50", "setting": "[11]", "result": "> 30000", "unit": "nM"}, {"measurement": "behaviour at the sigma receptor (mode of action)", "setting": "[12]; conclusion from guinea pig vas deferens tissue bioassay", "result": "positive allosteric modulators"}, {"measurement": "effect on the (+)SKF-10,047-induced increase in twitch contraction amplitude", "setting": "[12]; field-stimulated guinea pig vas deferens, (+)SKF-10047 100 μM", "result": "slightly increased"}]}]}
